System: HCMV
Test: HCMV infection of monocyte-derived dendritic cells with cytokine treatment
Assay type: cell-based
Settings: up to day 12 post stimulation, compared with unstimulated cells
Protocol: PBMC were isolated as described above and plated onto primaria plates for monocyte adherence. After two hours of culture, non-adherent cells were removed by three washes in serum free medium and adherent cells were stimulated with I1-4 (1000 U/ml) and GM-CSF (50 ng/ml) as previously described (Sallusto et al., J. Exp. Med. 179:1109-1118 (1994)). Immature dendritic cells cultured in RPMI medium containing 1% sodium pyruvate were developed during the first 12 days of culture. Cell samples were collected at 12 days for flow cytometric analysis to determine the expression of dendritic and macrophage markers. Small, round dendritic cells were stimulated with […] (10 ng/ml) and IFN-γ (500 U/ml) for two days. Thereafter, the mature, adherent dendritic cells were challenged with HCMV at a MOI of 10 or mock infected as described herein.
PBMC were cultured under standard conditions with IL-4 and GM-CSF to yield monocyte-derived dendritic cells (see, e.g., Annals Surg. 226:1-5 (1997)). The dendritic cells were infected in vitro under the conditions described herein with HCMV. […] Viral growth is measured as described with antibodies against viral proteins IE and gB. Viral growth is measured at days 1, 3, 8, 12, and 20 post infection.

For “IFN-γ: cytokine used at 500 U/ml to stimulate dendritic cells”, the “viral expression in MDDC after additional stimulation” value was “did not increase viral expression”.

Reference: patent publication US20010055755A1, “Dendritic marker-expressing macrophage cultures and methods for reactivating latent HCMV” (priority 1997, published 2001)
